Read-outs that look alike come from different tables or passages of the source.
Key:
M14/LCC6MDR1 = test: Cell viability (MTS) anti-proliferative assay, multidrug-resistant M14/LCC6MDR1; format: cell-based, human; conditions: for IC50: multidrug-resistant M14/LCC6MDR1 melanoma, 48 h treatment, MTS, n = 4, read-out: IC50 values ± SEM, M14/LCC6MDR1; for Resistance Index: IC50 on M14/LCC6MDR1 divided by IC50 on parental M14
Description: (§1) The anti-proliferative effect of UC-112 and its analogs were tested in human melanoma (A375, M14 and M14/LCC6MDR1) and human prostate cancer (PC-3) cell lines. All the cell lines were purchased from ATCC (American Type Culture Collection, Manassas, VA). The cancer cells were cultured using the supplemented cell culture medium as described before at 37°C in a humidified atmosphere containing 5% CO2. 5000 cells in logarithm growing phase were seeded overnight into each well of a 96-well plate. Then the cells were continuously incubated with sequential diluted compound solution (10 nM to 100 μM, 100 μl per well) in cell culture medium.

PC-3 = test: Cell viability (MTS) anti-proliferative assay, PC-3; format: cell-based; conditions: PC-3 human prostate cancer, 48 h treatment, n = 4, read-out: IC50 values ± SEM, PC-3
Description: as §1

A375 = test: Cell viability (MTS) anti-proliferative assay, A375; format: cell-based; conditions: A-375, A375 human melanoma, 48 h treatment, n = 4, read-out: IC50 values ± SEM, A375
Description: as §1

M14 = test: Cell viability (MTS) anti-proliferative assay, M14; format: cell-based; conditions: M14 human melanoma, 48 h treatment, n = 4, read-out: IC50 values ± SEM, M14
Description: as §1

NCI-60 cell lines = test: NCI-60 cell line screening (SRB), whole panel; format: cell-based, human; conditions: for Activity in NCI-60 one-concentration screening: 10 μM
Description: Four compounds including the parental compound UC-112 were submitted to National Cancer Institute for its NCI-60 cell line screening, initially tested at one concentration (10 μM), and subsequently selected for full five concentration testing following the standard protocols disclosed by NCI [34]. In brief, cells were plated into 96 well micro-titer plates 24 h prior to the treatment of compound solution for 48 h, then the cell viability was read out through absorbance of sulforhodamine B (SRB) staining.

caspase 3/7 = test: Caspase 3/7 functional assay (Caspase-Glo 3/7); format: cell-based, human; conditions: 1 μM, 24 h, A375 or PC-3 cells, N = 3
Description: The caspase 3/7 activity of cancer cells treated by DMSO control or compound of interest was analyzed using Glo Caspase-Glo 3/7 kit from Promega Corporation (Madison, WI) as per manufacturer’s instructions in similar protocol as described before. The readings of relative luminescence unit were normalized by the cell viability read from the same well determined by compatible CytoTox-Fluor Cytotoxicity assay kit (Promega, WI).

| SMILES | IC50 (M14/LCC6MDR1; Homo sapiens, 48 h) | Resistance Index (M14/LCC6MDR1) | IC50 (PC-3) | IC50 (A375) | IC50 (M14) | Activity in NCI-60 one-concentration screening (NCI-60 cell lines) | Caspase 3/7 activation relative to DMSO control group (caspase 3/7) | IC50 (M14/LCC6MDR1) | GI50 (NCI-60 cell lines; Homo sapiens, five dose testing, 48 h, SRB, read-out: Average GI50 over all cancer cell lines in the NCI-60 panel) |
| --- | --- | --- | --- | --- | --- | --- | --- | --- | --- |
| Oc1c(CN2CCCC2)cc(COCc2ccc(F)cc2)c2cccnc12 [4a, 5-(((4-fluorobenzyl)oxy)methyl)-7-(pyrrolidin-1-ylmethyl)quinolin-8-ol] | 4.4 ± 0.7 µM | 2.4 | 0.7 ± 0.2 µM | 1.5 ± 0.2 µM | 1.8 ± 0.3 µM |  |  |  |  |
| Oc1c(CN2CCCC2)cc(COCc2ccc(Cl)cc2)c2cccnc12 [4b, 5-(((4-chlorobenzyl)oxy)methyl)-7-(pyrrolidin-1-ylmethyl)quinolin-8-ol] | 2.4 ± 0.5 µM | 2.2 | 0.9 ± 0.1 µM | 1.5 ± 0.3 µM | 1.1 ± 0.1 µM |  |  |  |  |
| Oc1c(CN2CCCC2)cc(COCc2ccc(Br)cc2)c2cccnc12 [4c, 5-(((4-bromobenzyl)oxy)methyl)-7-(pyrrolidin-1-ylmethyl)quinolin-8-ol] | 1.8 ± 0.6 µM | 1.8 | 0.7 ± 0.3 µM | 0.9 ± 0.2 µM | 1 ± 0.2 µM | good activity | up to 4 folds |  |  |
| Oc1c(CN2CCCC2)cc(COCc2ccc(C(F)(F)F)cc2)c2cccnc12 [4d, 7-(pyrrolidin-1-ylmethyl)-5-(((4-(trifluoromethyl)benzyl)oxy)methyl)quinolin-8-ol] | 1.9 ± 0.5 µM | 1.9 | 1 ± 0.1 µM | 0.9 ± 0.3 µM | 1 ± 0.4 µM |  |  |  |  |
| Cc1ccc(COCc2cc(CN3CCCC3)c(O)c3ncccc23)cc1 [4e, 5-(((4-methylbenzyl)oxy)methyl)-7-(pyrrolidin-1-ylmethyl)quinolin-8-ol] | 4.1 ± 2 µM | 1.8 | 1.1 ± 0.2 µM | 1.7 ± 0.3 µM | 2.3 ± 0.5 µM |  |  |  |  |
| CC(C)(C)c1ccc(COCc2cc(CN3CCCC3)c(O)c3ncccc23)cc1 [4h, 5-(((4-(tert-butyl)benzyl)oxy)methyl)-7-(pyrrolidin-1-ylmethyl)quinolin-8-ol] | 1.5 ± 0.7 µM |  | 1.5 ± 0.3 µM | 1.1 ± 0.4 µM |  |  |  |  |  |
| COc1ccc(COCc2cc(CN3CCCC3)c(O)c3ncccc23)cc1 [4i, 5-(((4-methoxybenzyl)oxy)methyl)-7-(pyrrolidin-1-ylmethyl)quinolin-8-ol] | 3.8 ± 0.6 µM | 2.5 | 1 ± 0.4 µM | 1.8 ± 0.2 µM | 1.5 ± 0.4 µM |  |  |  |  |
| Oc1c(CN2CCCC2)cc(COCc2ccc(OCc3ccccc3)cc2)c2cccnc12 [4j, 5-(((4-(benzyloxy)benzyl)oxy)methyl)-7-(pyrrolidin-1-ylmethyl)quinolin-8-ol] | 12.1 ± 0.5 µM |  |  | 2.8 ± 0.1 µM |  |  |  |  |  |
| CC(=O)Nc1ccc(COCc2cc(CN3CCCC3)c(O)c3ncccc23)cc1 [4k, N-(4-(((8-hydroxy-7-(pyrrolidin-1-ylmethyl)quinolin-5-yl)methoxy)methyl)phenyl)acetamide] | 5.5 ± 1.3 µM |  |  | 4.7 ± 0.8 µM |  |  |  |  |  |
| COc1cc(COCc2cc(CN3CCCC3)c(O)c3ncccc23)cc(OC)c1OC [4l, 7-(pyrrolidin-1-ylmethyl)-5-(((3,4,5-trimethoxybenzyl)oxy)methyl)quinolin-8-ol] | > 30 µM | > 8.3 | 1.6 ± 0.3 µM | 2.8 ± 0.4 µM | 3.6 ± 1 µM |  |  |  |  |
| Oc1c(CN2CCCC2)cc(COCc2ccco2)c2cccnc12 [6a, 5-((furan-2-ylmethoxy)methyl)-7-(pyrrolidin-1-ylmethyl)quinolin-8-ol] | 15.3 ± 3.1 µM | 4.9 | 27.5 ± 2 µM | 2.7 ± 0.3 µM | 3.1 ± 0.3 µM |  |  |  |  |
| Oc1c(CN2CCCC2)cc(COCc2cccs2)c2cccnc12 [6b, 7-(pyrrolidin-1-ylmethyl)-5-((thiophen-2-ylmethoxy)methyl)quinolin-8-ol] | 4.2 ± 0.2 µM | 2.2 | 3.4 ± 0.7 µM | 2.5 ± 0.5 µM | 1.9 ± 0.9 µM |  |  |  |  |
| Oc1c(CN2CCCC2)cc(COCc2ccccn2)c2cccnc12 [6c, 5-((pyridin-2-ylmethoxy)methyl)-7-(pyrrolidin-1-ylmethyl)quinolin-8-ol] | > 30 µM | >3.8 | > 30 µM | 8.4 ± 1.5 µM | 8 ± 2.2 µM |  |  |  |  |
| Oc1c(CN2CCCC2)cc(COCC2CCCCC2)c2cccnc12 [6d, 5-((cyclohexylmethoxy)methyl)-7-(pyrrolidin-1-ylmethyl)quinolin-8-ol] |  |  |  | 1 ± 0.1 µM | 1.3 ± 0.6 µM |  |  |  |  |
| CCOCc1cc(CN2CCCC2)c(O)c2ncccc12 [6e, 5-(ethoxymethyl)-7-(pyrrolidin-1-ylmethyl)quinolin-8-ol] |  |  |  | 6.1 ± 0.7 µM | 5.1 ± 2.1 µM |  |  |  |  |
| CCCOCc1cc(CN2CCCC2)c(O)c2ncccc12 [6f, 5-(propoxymethyl)-7-(pyrrolidin-1-ylmethyl)quinolin-8-ol] |  |  |  | 5 ± 0.3 µM | 5.9 ± 1.2 µM |  |  |  |  |
| CCCCOCc1cc(CN2CCCC2)c(O)c2ncccc12 [6g, 5-(butoxymethyl)-7-(pyrrolidin-1-ylmethyl)quinolin-8-ol] |  |  |  | 3 ± 0.5 µM | 4.9 ± 1.3 µM |  |  |  |  |
| Oc1c(CN2CCCCC2)cc(COCc2ccccc2)c2cccnc12 [8a, 5-((benzyloxy)methyl)-7-(piperidin-1-ylmethyl)quinolin-8-ol] | 2.1 ± 0.6 µM | 1.6 | 1.3 ± 0.3 µM | 1.1 ± 0.1 µM | 1.3 ± 0.2 µM |  |  |  |  |
| Oc1c(CN2CCOCC2)cc(COCc2ccccc2)c2cccnc12 [8b, 5-((benzyloxy)methyl)-7-(morpholinomethyl)quinolin-8-ol] | 3.5 ± 1 µM | 0.7 |  | 5 ± 1.6 µM | 4.8 ± 0.5 µM |  |  |  |  |
| Oc1c(CN2CCCC2)cc(COCCc2ccccc2)c2cccnc12 [10a, 5-(phenethoxymethyl)-7-(pyrrolidin-1-ylmethyl)quinolin-8-ol] | 15 to 20 µM | 5.2 |  | 2.8 ± 0.9 µM | 2.9 ± 0.2 µM |  |  | 15 ± 2.5 µM |  |
| Oc1c(CN2CCCC2)cc(COCCCc2ccccc2)c2cccnc12 [10b, 5-((3-phenylpropoxy)methyl)-7-(pyrrolidin-1-ylmethyl)quinolin-8-ol] | 15 to 20 µM | 8.7 |  | 2.4 ± 0.7 µM | 2.3 ± 0.8 µM |  |  | 20 ± 1.6 µM |  |
| Oc1c(CN2CCCC2)cc(CSCc2ccccc2)c2cccnc12 [12a, 5-((benzylthio)methyl)-7-(pyrrolidin-1-ylmethyl)quinolin-8-ol] | 2.9 ± 0.6 µM | 2.1 | 1.1 ± 0.1 µM | 1.4 ± 0.3 µM | 1.4 ± 0.2 µM | good activity | up to 4 folds |  |  |
| CN(Cc1ccccc1)Cc1cc(CN2CCCC2)c(O)c2ncccc12 [12b, 5-((benzyl(methyl)amino)methyl)-7-(pyrrolidin-1-ylmethyl)quinolin-8-ol] | 8 ± 1 µM | 1.3 | 2.5 ± 0.6 µM | 7.1 ± 0.7 µM | 6.2 ± 1.4 µM |  |  |  |  |
| Oc1c(CN2CCCC2)cc(COCc2ccccc2)c2cccnc12 [UC-112, 5-((benzyloxy)methyl)-7-(pyrrolidin-1-ylmethyl)quinolin-8-ol, reference compound] | 3.2 ± 0.5 µM | 1.5 | 1.6 ± 1 µM | 1.9 ± 0.6 µM | 2.1 ± 0.3 µM | good activity |  |  | 2.2 µM |
| COCCn1c2c([n+](Cc3cnccn3)c1C)C(=O)c1ccccc1C2=O [YM-155, reference compound] | > 10 µM | higher than 2941 |  |  | 0.003 µM |  |  |  |  |

Source: PMC4466525, “Design, Synthesis and Structure-Activity Relationship Studies of Novel Survivin Inhibitors with Potent Anti-Proliferative Properties” (PLoS ONE, 2015)
